Laboratory results from PubChem BioAssay (NCI).
Values joined by “and” are separate entries in the source; they are usually repeats but may differ in a detail not shown here. Identical values can stand only once.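 Interpolation was linear, between the two tested concentrations surrounding the appropriate level; five concentrations were tested over 48 hours in 96-well plates. Abbreviation: GI50, concentration required for 50% inhibition of growth. Definition used: TGI = concentration required for complete inhibition of growth.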

Tested on: NCI-H226 lung
Test: inhibition of tumour cell growth, NCI panel, 48 h

Compound	TGI	GI50 [nM]
COc1cc2c(c(OC)c1OC)-c1ccc(OC)c(=O)cc1[C@@H](NC(=O)c1ccccc1)CC2	1890 nM	–
COc1cccc2c1C(=O)c1c(O)c3c(c(O)c1C2=O)C[C@@](O)(C(C)=O)C[C@@H]3OC1OC(C)C(O)C(N)C1Br (stereo not given in full)	71.4 nM and 81.8 nM	13.4
CN1C/C=C\CCOc2cccc(c2)-c2ccnc(n2)Nc2cccc(c2)C1	1300 nM	69.2
Oc1ccccc1C(Sc1nc2ccccc2s1)Sc1nc2ccccc2s1	> 100000 nM	–
COC1=C(C)C(=O)c2c(c(COC(N)=O)c3n2CC2C3N2C)C1=O (stereo not given)	337 nM	–
COc1ccc(Cn2cc3c(c2-c2ccccc2)CC(C)(C)c2cnoc2-3)cc1	> 100000 nM	4190
c1cc(CNC23CC4CC(CC(C4)C2)C3)cc(C[N+](Cc2cccc(CNC34CC5CC(CC(C5)C3)C4)c2)(Cc2cccc(CNC34CC5CC(CC(C5)C3)C4)c2)Cc2cccc(CNC34CC5CC(CC(C5)C3)C4)c2)c1 (stereo not given)	45300 nM	11500
CN(C)C(=O)c1cc2cnc(Nc3ccc(-c4csc5c(=S)cc(N6CCOCC6)oc45)cc3)nc2n1C1CCCC1	> 11900 nM	405
COC1=CC(=O)c2nc(-c3cccc(C)n3)[nH]c2C1=O	43800 nM	21700

Tested on: IGROV1 ovarian
Test: inhibition of tumour cell growth, NCI panel, 48 h

Compound	GI50 [nM]	TGI
COc1cc2c(c(OC)c1OC)-c1ccc(OC)c(=O)cc1[C@@H](NC(=O)c1ccccc1)CC2	5.87	30000 nM and 55200 nM
COc1cccc2c1C(=O)c1c(O)c3c(c(O)c1C2=O)C[C@@](O)(C(C)=O)C[C@@H]3OC1OC(C)C(O)C(N)C1Br (stereo not given in full)	–	1410 nM and 9050 nM
CN1C/C=C\CCOc2cccc(c2)-c2ccnc(n2)Nc2cccc(c2)C1	48.7	1310 nM
Oc1ccccc1C(Sc1nc2ccccc2s1)Sc1nc2ccccc2s1	–	> 100000 nM
COC1=C(C)C(=O)c2c(c(COC(N)=O)c3n2CC2C3N2C)C1=O (stereo not given)	–	351 nM
COc1ccc(Cn2cc3c(c2-c2ccccc2)CC(C)(C)c2cnoc2-3)cc1	2300	> 100000 nM
c1cc(CNC23CC4CC(CC(C4)C2)C3)cc(C[N+](Cc2cccc(CNC34CC5CC(CC(C5)C3)C4)c2)(Cc2cccc(CNC34CC5CC(CC(C5)C3)C4)c2)Cc2cccc(CNC34CC5CC(CC(C5)C3)C4)c2)c1 (stereo not given)	3700	9800 nM
CN(C)C(=O)c1cc2cnc(Nc3ccc(-c4csc5c(=S)cc(N6CCOCC6)oc45)cc3)nc2n1C1CCCC1	509	> 50000 nM
COC1=CC(=O)c2nc(-c3cccc(C)n3)[nH]c2C1=O	20500	47000 nM

Tested on: MDA-MB-231 breast
Test: inhibition of tumour cell growth, NCI panel, 48 h

Compound	TGI [nM]	GI50 [nM]
COc1cc2c(c(OC)c1OC)-c1ccc(OC)c(=O)cc1[C@@H](NC(=O)c1ccccc1)CC2	15700	–
COc1cccc2c1C(=O)c1c(O)c3c(c(O)c1C2=O)C[C@@](O)(C(C)=O)C[C@@H]3OC1OC(C)C(O)C(N)C1Br (stereo not given in full)	1720	–
CN1C/C=C\CCOc2cccc(c2)-c2ccnc(n2)Nc2cccc(c2)C1	859	59.1
Oc1ccccc1C(Sc1nc2ccccc2s1)Sc1nc2ccccc2s1	> 100000	–
COC1=C(C)C(=O)c2c(c(COC(N)=O)c3n2CC2C3N2C)C1=O (stereo not given)	409	–
COc1ccc(Cn2cc3c(c2-c2ccccc2)CC(C)(C)c2cnoc2-3)cc1	> 100000	3460
c1cc(CNC23CC4CC(CC(C4)C2)C3)cc(C[N+](Cc2cccc(CNC34CC5CC(CC(C5)C3)C4)c2)(Cc2cccc(CNC34CC5CC(CC(C5)C3)C4)c2)Cc2cccc(CNC34CC5CC(CC(C5)C3)C4)c2)c1 (stereo not given)	31000	8730
CN(C)C(=O)c1cc2cnc(Nc3ccc(-c4csc5c(=S)cc(N6CCOCC6)oc45)cc3)nc2n1C1CCCC1	> 50000	249
COC1=CC(=O)c2nc(-c3cccc(C)n3)[nH]c2C1=O	66200	27100

Tested on: OVCAR-3 ovarian
Test: inhibition of tumour cell growth, NCI panel, 48 h

Compound	GI50 [nM]	TGI
COc1cc2c(c(OC)c1OC)-c1ccc(OC)c(=O)cc1[C@@H](NC(=O)c1ccccc1)CC2	< 3	–
COc1cccc2c1C(=O)c1c(O)c3c(c(O)c1C2=O)C[C@@](O)(C(C)=O)C[C@@H]3OC1OC(C)C(O)C(N)C1Br (stereo not given in full)	178	364 nM and 584 nM
CN1C/C=C\CCOc2cccc(c2)-c2ccnc(n2)Nc2cccc(c2)C1	41.9	769 nM
Oc1ccccc1C(Sc1nc2ccccc2s1)Sc1nc2ccccc2s1	–	> 100000 nM
COC1=C(C)C(=O)c2c(c(COC(N)=O)c3n2CC2C3N2C)C1=O (stereo not given)	–	98.7 nM
COc1ccc(Cn2cc3c(c2-c2ccccc2)CC(C)(C)c2cnoc2-3)cc1	662	3280 nM
c1cc(CNC23CC4CC(CC(C4)C2)C3)cc(C[N+](Cc2cccc(CNC34CC5CC(CC(C5)C3)C4)c2)(Cc2cccc(CNC34CC5CC(CC(C5)C3)C4)c2)Cc2cccc(CNC34CC5CC(CC(C5)C3)C4)c2)c1 (stereo not given)	4350	11800 nM
CN(C)C(=O)c1cc2cnc(Nc3ccc(-c4csc5c(=S)cc(N6CCOCC6)oc45)cc3)nc2n1C1CCCC1	910	> 50000 nM
COC1=CC(=O)c2nc(-c3cccc(C)n3)[nH]c2C1=O	22900	46400 nM

Tested on: SK-MEL-28 melanoma
Test: inhibition of tumour cell growth, NCI panel, 48 h

Compound	GI50 [nM]	TGI
COc1cc2c(c(OC)c1OC)-c1ccc(OC)c(=O)cc1[C@@H](NC(=O)c1ccccc1)CC2	< 3	30000 nM and > 100000 nM
COc1cccc2c1C(=O)c1c(O)c3c(c(O)c1C2=O)C[C@@](O)(C(C)=O)C[C@@H]3OC1OC(C)C(O)C(N)C1Br (stereo not given in full)	220	1280 nM and 1320 nM
CN1C/C=C\CCOc2cccc(c2)-c2ccnc(n2)Nc2cccc(c2)C1	64.1	451 nM
Oc1ccccc1C(Sc1nc2ccccc2s1)Sc1nc2ccccc2s1	–	> 100000 nM
COC1=C(C)C(=O)c2c(c(COC(N)=O)c3n2CC2C3N2C)C1=O (stereo not given)	–	173 nM
COc1ccc(Cn2cc3c(c2-c2ccccc2)CC(C)(C)c2cnoc2-3)cc1	6860	> 100000 nM
c1cc(CNC23CC4CC(CC(C4)C2)C3)cc(C[N+](Cc2cccc(CNC34CC5CC(CC(C5)C3)C4)c2)(Cc2cccc(CNC34CC5CC(CC(C5)C3)C4)c2)Cc2cccc(CNC34CC5CC(CC(C5)C3)C4)c2)c1 (stereo not given)	6940	33100 nM
CN(C)C(=O)c1cc2cnc(Nc3ccc(-c4csc5c(=S)cc(N6CCOCC6)oc45)cc3)nc2n1C1CCCC1	752	> 50000 nM
COC1=CC(=O)c2nc(-c3cccc(C)n3)[nH]c2C1=O	31700	> 100000 nM
